Counter-ions that a name gives are not always drawn.
Columns and labels:
[1] = molecular target: T1, Human GnRH receptor (Homo sapiens, UniProt P30968); assay: Human GnRH receptor binding inhibition assay (125I-leuprolerin, membrane fraction of CHO cells expressing human GnRH receptors); details: CHO cell membrane fraction with human GnRH receptors, 25° C., 60 minutes, concentration series, Hill plot, read-out: Binding inhibitory activity (IC50)
T1 construct: expressed in transfected cells; host or cells: CHO (Chinese hamster ovary) cells, membrane fraction
T1 sequence (P30968 1-328): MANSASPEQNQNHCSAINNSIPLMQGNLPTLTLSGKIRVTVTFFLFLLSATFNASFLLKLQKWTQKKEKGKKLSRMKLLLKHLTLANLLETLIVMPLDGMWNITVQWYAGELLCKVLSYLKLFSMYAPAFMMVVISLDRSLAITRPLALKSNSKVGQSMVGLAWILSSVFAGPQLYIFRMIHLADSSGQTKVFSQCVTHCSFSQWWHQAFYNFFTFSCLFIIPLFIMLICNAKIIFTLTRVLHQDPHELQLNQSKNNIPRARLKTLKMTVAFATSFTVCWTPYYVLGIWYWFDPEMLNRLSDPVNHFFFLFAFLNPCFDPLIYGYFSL
Description: Human GnRH receptor binding inhibition assay
(A) Preparation of ^125 I-leuprolerin
Ten (10) μl of 3×10^-4 M aqueous leuprolerin solution and 10 μl of 0.01 mg/ml lactoperoxidase solution were taken in a tube, and 10 μl of Na^125 I solution (37 MBq) was added. After stirring, 10 μl of 0.001% H2 O2 was added and the reaction was conducted at room temperature for 20 minutes. The reaction was stopped by adding 700 μl of 0.05% TFA solution, and the reaction mixture was purified by reversed HPLC. The HPLC parameters are shown below. The retention time of ^125 I-leuprolerin was 26-27 minutes.
Column: TSKgel ODS-80™ CTR (4.6 mm×10 cm)
Eluent: Solvent A (0.05%TFA) Solvent B (40%CH3 CN-0.05%TFA)
Min. 0 (100% Solvent A)--Min. 3 (100% Solvent A)--Min. 7 (50% Solvent A+50% Solvent B)--Min. 40 (100% Solvent B) Elution temperature: room temperature Elution flow rate: 1 ml/min.
CHO cells (10^9 cells) with human GnRH receptors expressed were floated on phosphate-buffered saline containing EDTA (PBS-EDTA) and centrifuged at 100×g for 5 minutes. To the pellet obtained was added 10 ml of a cell homogenate buffer (10 mM NaHCO3, 5 mM EDTA, pH 7.5) and the mixture was homogenized using a Polytron homogenizer. The homogenate was centrifuged at 400×g for 15 minutes and the supernatant was taken in an ultracentrifuge tube and recentrifuged at 100,000×g for 1 hour. The membrane fraction thus obtained as a pellet was suspended in 2 ml of assay buffer and centrifuged at 100,000×g for 1 hour. The membrane fraction recovered was resuspended in 20 ml of assay buffer and the suspension was portioned, stored at -80° C., and thawed when needed.
(C) Determination of the ^125 I-leuprolerin binding inhibition rate
The membrane fraction prepared in Step (B) was diluted with assay buffer to 200 μg/ml and the dilution was portioned into tubes, 188 μl per tube. Then, 2 μl of 2 mM solution of the test compound in 60% DMSO and 10 μl of 38 nM ^125 I-leuprolerin solution in the same solvent were simultaneously added to the tubes. To determine the maximum binding, a test mixture of 2 μl of 60% DMSO and 10 μl of 38 nM ^125 I-leuprolerin solution in the same solvent was prepared. For the determination of nonspecific binding, a test mixture of 2 μl of 100 μM leuprolerin solution in 60% DMSO and 10 μl of 38 nM solution of ^125 I-leuprolerin in the same solvent was also prepared. The mixtures were respectively allowed to react at 25° C. for 60 minutes and the reaction product in each tube was filtered through a poly(ethylene imine)-treated Whatman glass filter (GF-F) under suction. The radioactivity of ^125 I-leuprolerin remaining on the filter was determined using a γ-counter.
Using the measured values, the following equation was calculated to find the binding inhibition rate for each test compound.
Binding inhibition (%)=(TB-SB)/(TB-NSB)×100
[SB: radioactivity with the compound added
TB: maximum bound radioactivity
NBS: nonspecifically bound radioactivity]
Using a concentration series of each test compound, the concentration of the compound which inhibited the binding by 50% (IC50) was calculated by Hill plot.

[2] = repeated administration, receptor down-regulation; cited from earlier work
[3] = system: GnRH; details: relative to native GnRH; cited from earlier work

Compound	IC50 [1] [µM]	production of testosterone [2]	times as active as native GnRH [3]
C[C@H](NC(=O)Nc1ccc(CN2C(=O)[C@H]3CCC[C@H]3N(C(=O)CN3C(=O)c4ccccc4C3=O)c3ccccc32)cc1)c1ccccc1 (relative stereo) [Example 28, (3aR*,10aS*)-9-[4-[3-((S)-1-Phenylethyl)ureido]-benzyl]-4-(phthalimidoacetyl)-2,3,3a,4,9,10a-hexahydrobenzo[b]cyclopenta[e][1,4]diazepin-10(1H)-one]	0.3		
O=C(NCCc1ccccc1)Nc1ccc(CN2C(=O)[C@H]3CCC[C@H]3N(C(=O)CN3C(=O)c4ccccc4C3=O)c3ccccc32)cc1 (relative stereo) [Example 30, (3aR*,10aS*)-9-[4-[3-(2-Phenylethyl)ureido]benzyl]-4-(phthalimidoacetyl)-2,3,3a,4,9,10a-hexahydrobenzo[b]-cyclopenta[e][1,4]diazepin-10(1H)-one]	0.04		
O=C(NCc1ccc(F)cc1)Nc1ccc(CN2C(=O)[C@H]3CCC[C@H]3N(C(=O)CN3C(=O)c4ccccc4C3=O)c3ccccc32)cc1 (relative stereo) [Example 31, (3aR*,10aS*)-9-[4-[3-(4-Fluorobenzyl)ureido]benzyl]-4-(phthalimidoacetyl)-2,3,3a,4,9,10a-hexahydrobenzo[b]-cyclopenta[e][1,4]diazepin-10(1H)-one]	0.03		
COc1ccc(CNC(=O)Nc2ccc(CN3C(=O)[C@H]4CCC[C@H]4N(C(=O)CN4C(=O)c5ccccc5C4=O)c4ccccc43)cc2)cc1 (relative stereo) [Example 32, (3aR*,10aS*)-9-[4-[3-(4-Methoxybenzyl)ureido]-benzyl]-4-(phthalimidoacetyl)-2,3,3a,4,9,10a-hexahydro-benzo[b]cyclopenta[e][1,4]diazepin-10(1H)-one]	0.04		
O=C(NCc1ccncc1)Nc1ccc(CN2C(=O)[C@H]3CCC[C@H]3N(C(=O)CN3C(=O)c4ccccc4C3=O)c3ccccc32)cc1 (relative stereo) [Example 34, (3aR*,10aS*)-4-(Phthalimidoacetyl)-9-[4-[3-(4-pyridylmethyl)ureido]benzyl]-2,3,3a,4,9,10a-hexahydrobenzo[b]cyclopenta[e][1,4]diazepin-l0(1H)-one hydrochloride]	0.08		
Leuprolerin acetate		cut down on the production of testosterone to the castrated level	20-50 times

Source: US5866567A, “Diazepinones, their production and use” (Takeda Chemical Industries, Ltd., priority 1995, dated 1999)
